# Source: ChEMBL document CHEMBL2375251, “Anticancer activity of novel hybrid molecules containing 5-benzylidene thiazolidine-2,4-dione” (Eur J Med Chem, 2013)
# The source made the active and inactive calls. No cut-off for these calls is given here.
# Key:
# MOLT-3 [1] = assay: Induction of apoptosis in human MOLT3 cells assessed as caspase 3/7-mediated DEVD-pNA cleavage at 1 uM after 6 hrs by colorimetric assay relative to control; type: functional
# U-937 [2] = assay: Induction of apoptosis in human U937 cells assessed as caspase 3/7-mediated DEVD-pNA cleavage at 1 uM after 6 hrs by colorimetric assay relative to control; type: functional
# HL-60 [3] = assay: Induction of apoptosis in human HL60 cells assessed as caspase 3/7-mediated DEVD-pNA cleavage at 1 uM after 6 hrs by colorimetric assay relative to control; type: functional
# MOLT-3 [4] = assay: Induction of apoptosis in human MOLT3 cells assessed as caspase9-mediated LEHD-pNA cleavage at 1 uM after 6 hrs by colorimetric assay; type: functional, cell-based
# U-937 [5] = assay: Induction of apoptosis in human U937 cells assessed as caspase9-mediated LEHD-pNA cleavage at 1 uM after 6 hrs by colorimetric assay; type: functional, cell-based
# HL-60 [6] = assay: Induction of apoptosis in human HL60 cells assessed as caspase9-mediated LEHD-pNA cleavage at 1 uM after 6 hrs by colorimetric assay; type: functional, cell-based
# MOLT-3 [7] = assay: Induction of apoptosis in human MOLT3 cells assessed as caspase 8-mediated IETD-pNA cleavage at 1 uM after 6 hrs by colorimetric assay; type: functional, cell-based
# U-937 [8] = assay: Induction of apoptosis in human U937 cells assessed as caspase 8-mediated IETD-pNA cleavage at 1 uM after 6 hrs by colorimetric assay; type: functional, cell-based
# MOLT-3 [9] = assay: Induction of apoptosis in human MOLT3 cells assessed as caspase 3/7-mediated DEVD-pNA cleavage at 1 uM after 6 hrs by colorimetric assay; type: functional, cell-based
# HL-60 [10] = assay: Induction of apoptosis in human HL60 cells assessed as caspase 8-mediated IETD-pNA cleavage at 1 uM after 6 hrs by colorimetric assay; type: functional, cell-based
# U-937 [11] = assay: Induction of apoptosis in human U937 cells assessed as caspase 3/7-mediated DEVD-pNA cleavage at 1 uM after 6 hrs by colorimetric assay; type: functional, cell-based
# HL-60 [12] = assay: Induction of apoptosis in human HL60 cells assessed as caspase 3/7-mediated DEVD-pNA cleavage at 1 uM after 6 hrs by colorimetric assay; type: functional, cell-based
# MOLT-3 [13] = assay: Induction of apoptosis in human MOLT3 cells assessed as cytochrome c release at 1 uM after 6 hrs by Western blot analysis; type: functional, cell-based
# U-937 [14] = assay: Induction of apoptosis in human U937 cells assessed as cytochrome c release at 1 uM after 6 hrs by Western blot analysis; type: functional, cell-based
# HL-60 [15] = assay: Induction of apoptosis in human HL60 cells assessed as cytochrome c release at 1 uM after 6 hrs by Western blot analysis; type: functional, cell-based
# MOLT-3 [16] = assay: Induction of apoptosis in human MOLT3 cells assessed as caspase-3-mediated PARP hydrolysis at 1 uM after 6 hrs by Western blot analysis; type: functional, cell-based
# U-937 [17] = assay: Induction of apoptosis in human U937 cells assessed as caspase-3-mediated PARP hydrolysis at 1 uM after 6 hrs by Western blot analysis; type: functional, cell-based
# HL-60 [18] = assay: Induction of apoptosis in human HL60 cells assessed as caspase-3-mediated PARP hydrolysis at 1 uM after 6 hrs by Western blot analysis; type: functional, cell-based
# MOLT-3 [19] = assay: Induction of apoptosis in human MOLT3 cells assessed as procaspase-9 activation at 1 uM after 6 hrs by Western blot analysis; type: functional, cell-based
# U-937 [20] = assay: Induction of apoptosis in human U937 cells assessed as procaspase-9 activation at 1 uM after 6 hrs by Western blot analysis; type: functional, cell-based
# HL-60 [21] = assay: Induction of apoptosis in human HL60 cells assessed as procaspase-9 activation at 1 uM after 6 hrs by Western blot analysis; type: functional, cell-based
# MOLT-3 [22] = assay: Induction of apoptosis in human MOLT3 cells assessed as procaspase-8 activation at 1 uM after 6 hrs by Western blot analysis; type: functional, cell-based
# U-937 [23] = assay: Induction of apoptosis in human U937 cells assessed as procaspase-8 activation at 1 uM after 6 hrs by Western blot analysis; type: functional, cell-based
# HL-60 [24] = assay: Induction of apoptosis in human HL60 cells assessed as procaspase-8 activation at 1 uM after 6 hrs by Western blot analysis; type: functional, cell-based
# MOLT-3 [25] = assay: Induction of apoptosis in human MOLT3 cells assessed as procaspase-7 activation at 1 uM after 6 hrs by Western blot analysis; type: functional, cell-based
# U-937 [26] = assay: Induction of apoptosis in human U937 cells assessed as procaspase-6 activation at 1 uM after 6 hrs by Western blot analysis; type: functional, cell-based
# HL-60 [27] = assay: Induction of apoptosis in human HL60 cells assessed as procaspase-6 activation at 1 uM after 6 hrs by Western blot analysis; type: functional, cell-based
# MOLT-3 [28] = assay: Induction of apoptosis in human MOLT3 cells assessed as procaspase-3 activation at 1 uM after 6 hrs by Western blot analysis; type: functional, cell-based
# U-937 [29] = assay: Induction of apoptosis in human U937 cells assessed as procaspase-3 activation at 1 uM after 6 hrs by Western blot analysis; type: functional, cell-based
# HL-60 [30] = assay: Induction of apoptosis in human HL60 cells assessed as procaspase-3 activation at 1 uM after 6 hrs by Western blot analysis; type: functional, cell-based
# HL-60 [31] = assay: Induction of apoptosis in human HL60 cells assessed as hypodiploid DNA content at 3 uM after 6 hrs by propidium iodide staining-based flow cytometry relative to control; type: functional
# MOLT-3 [32] = assay: Induction of apoptosis in human MOLT3 cells assessed as chromatin hydrolysis at 1 uM after 6 hrs by agarose gel electrophoresis; type: functional, cell-based
# U-937 [33] = assay: Induction of apoptosis in human U937 cells assessed as chromatin hydrolysis at 1 uM after 6 hrs by agarose gel electrophoresis; type: functional, cell-based
# HL-60 [34] = assay: Induction of apoptosis in human HL60 cells assessed as chromatin hydrolysis at 1 uM after 6 hrs by agarose gel electrophoresis; type: functional, cell-based
# U-937 [35] = assay: Induction of apoptosis in human U937 cells assessed as appearance of apoptotic bodies at 1 uM after 6 hrs by Hoechst 33258 staining based fluorescence microscopy; type: functional, cell-based
# U-937 [36] = assay: Induction of apoptosis in human U937 cells assessed as chromatin condensation at 1 uM after 6 hrs by Hoechst 33258 staining based fluorescence microscopy; type: functional, cell-based
# HL-60 [37] = assay: Induction of apoptosis in human HL60 cells assessed as appearance of apoptotic bodies at 1 uM after 6 hrs by Hoechst 33258 staining based fluorescence microscopy; type: functional, cell-based
# HL-60 [38] = assay: Induction of apoptosis in human HL60 cells assessed as chromatin condensation at 1 uM after 6 hrs by Hoechst 33258 staining based fluorescence microscopy; type: functional, cell-based
# MOLT-3 [39] = assay: Cytotoxicity against human MOLT3 cells after 4 hrs by MTT assay; type: functional, cell-based; settings: for IC50: MOLT-3, 4 h
# U-937 [40] = assay: Cytotoxicity against human U937 cells after 4 hrs by MTT assay; type: functional, cell-based; settings: for IC50: U-937, 4 h
# HL-60 [41] = assay: Cytotoxicity against human HL60 cells after 4 hrs by MTT assay; type: functional, cell-based; settings: for IC50: HL-60, 4 h
# HeLa = assay: Cytotoxicity against human HeLa cells after 4 days by Coulter counter analysis; type: functional, cell-based; settings: 96 h
# CCRF-CEM = assay: Cytotoxicity against human CEM cells after 3 days by Coulter counter analysis; type: functional, cell-based; settings: 72 h
# FM3A = assay: Cytotoxicity against mouse FM3A cells after 2 days by Coulter counter analysis; type: functional, cell-based; settings: 48 h
# L1210 = assay: Cytotoxicity against mouse L1210 cells after 2 days by Coulter counter analysis; type: functional, cell-based; settings: L1210, 48 h
# U-937 [42] = assay: Induction of apoptosis in human U937 cells assessed as procaspase-7 activation at 1 uM after 6 hrs by Western blot analysis; type: functional, cell-based
# HL-60 [43] = assay: Induction of apoptosis in human HL60 cells assessed as procaspase-7 activation at 1 uM after 6 hrs by Western blot analysis; type: functional, cell-based
# MOLT-3 [44] = assay: Induction of apoptosis in human MOLT3 cells assessed as procaspase-6 activation at 1 uM after 6 hrs by Western blot analysis; type: functional, cell-based
# U-937 [45] = assay: Induction of apoptosis in human U937 cells assessed as hypodiploid DNA content at 3 uM after 6 hrs by propidium iodide staining-based flow cytometry relative to control; type: functional
smiles,measurement,setting,value
C=C(Br)C(=O)Nc1cccc(/C=C2\SC(=O)N(Cc3ccc(F)cc3)C2=O)c1,fold change (FC),MOLT-3 [1],>2
same,fold change (FC),U-937 [2],>10
same,fold change (FC),HL-60 [3],>5
same,Activity,MOLT-3 [4],Active
same,Activity,U-937 [5],Active
same,Activity,HL-60 [6],Active
same,Activity,MOLT-3 [7],Active
same,Activity,U-937 [8],Active
same,Activity,MOLT-3 [9],Active
same,Activity,HL-60 [10],Active
same,Activity,U-937 [11],Active
same,Activity,HL-60 [12],Active
same,Activity,MOLT-3 [13],Active
same,Activity,U-937 [14],Active
same,Activity,HL-60 [15],Active
same,Activity,MOLT-3 [16],Active
same,Activity,U-937 [17],Active
same,Activity,HL-60 [18],Active
same,Activity,MOLT-3 [19],Active
same,Activity,U-937 [20],Active
same,Activity,HL-60 [21],Active
same,Activity,MOLT-3 [22],Active
same,Activity,U-937 [23],Active
same,Activity,HL-60 [24],Active
same,Activity,MOLT-3 [25],Active
same,Activity,U-937 [26],Active
same,Activity,HL-60 [27],Active
same,Activity,MOLT-3 [28],Active
same,Activity,U-937 [29],Active
same,Activity,HL-60 [30],Active
same,fold change (FC),HL-60 [31],12
same,Activity,MOLT-3 [32],inactive
same,Activity,U-937 [33],Active
same,Activity,HL-60 [34],Active
same,Activity,U-937 [35],Active
same,Activity,U-937 [36],Active
same,Activity,HL-60 [37],Active
same,Activity,HL-60 [38],Active
same,Activity,MOLT-3 [39],Dose-dependent effect
same,IC50,MOLT-3 [39],640 nM
same,Activity,U-937 [40],Dose-dependent effect
same,IC50,U-937 [40],530 nM
same,Activity,HL-60 [41],Dose-dependent effect
same,IC50,HL-60 [41],770 nM
same,IC50,HeLa,800 nM
same,IC50,CCRF-CEM,680 nM
same,IC50,FM3A,920 nM
same,IC50,L1210,680 nM
same,Activity,U-937 [42],Active
same,Activity,HL-60 [43],Active
same,Activity,MOLT-3 [44],Active
same,fold change (FC),U-937 [45],4
C=C(Br)C(=O)Nc1cccc(/C=C2\SC(=O)N(Cc3ccccc3)C2=O)c1,fold change (FC),MOLT-3 [1],>2
same,fold change (FC),U-937 [2],>10
same,fold change (FC),HL-60 [3],>5
same,Activity,MOLT-3 [4],Active
same,Activity,U-937 [5],Active
same,Activity,HL-60 [6],Active
same,Activity,MOLT-3 [7],Active
same,Activity,U-937 [8],Active
same,Activity,MOLT-3 [9],Active
same,Activity,HL-60 [10],Active
same,Activity,U-937 [11],Active
same,Activity,HL-60 [12],Active
same,Activity,MOLT-3 [13],Active
same,Activity,U-937 [14],Active
same,Activity,HL-60 [15],Active
same,Activity,MOLT-3 [16],Active
same,Activity,U-937 [17],Active
same,Activity,HL-60 [18],Active
same,Activity,MOLT-3 [19],Active
same,Activity,U-937 [20],Active
same,Activity,HL-60 [21],Active
same,Activity,MOLT-3 [22],Active
same,Activity,U-937 [23],Active
same,Activity,HL-60 [24],Active
same,Activity,MOLT-3 [25],Active
same,Activity,U-937 [26],Active
same,Activity,HL-60 [27],Active
same,Activity,MOLT-3 [28],Active
same,Activity,U-937 [29],Active
same,Activity,HL-60 [30],Active
same,fold change (FC),HL-60 [31],12
same,Activity,MOLT-3 [32],inactive
same,Activity,U-937 [33],Active
same,Activity,HL-60 [34],Active
same,Activity,U-937 [35],Active
same,Activity,U-937 [36],Active
same,Activity,HL-60 [37],Active
same,Activity,HL-60 [38],Active
same,Activity,MOLT-3 [39],Dose-dependent effect
same,IC50,MOLT-3 [39],600 nM
same,Activity,U-937 [40],Dose-dependent effect
same,IC50,U-937 [40],620 nM
same,Activity,HL-60 [41],Dose-dependent effect
same,IC50,HL-60 [41],690 nM
same,IC50,HeLa,1400 nM
same,IC50,CCRF-CEM,510 nM
same,IC50,FM3A,810 nM
same,IC50,L1210,380 nM
same,Activity,U-937 [42],Active
same,Activity,HL-60 [43],Active
same,Activity,MOLT-3 [44],Active
same,fold change (FC),U-937 [45],6
